Data taken from patent US7396837B2, “Antitumoral analogs of lamellarins” (Pharma Mar, S.A.U., priority 2002, dated 2008).
Where two headings read alike, the source gives them in different places.

What was measured:
[1] = system: PANC-1; assay: SRB colorimetric cell growth inhibition assay, PANC-1; type: cell-based; details: Homo sapiens; for CC50: LC=cell killing (cytotoxic effect), read-out: LC50 PANC-1; for IC (TGI): TGI=total growth inhibition (cytostatic effect), read-out: TGI PANC-1; for GI50: GI=growth inhibition, read-out: GI50 PANC-1
In short: (§1)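 Read-out: sulforhodamine B colorimetry of surviving cell mass after continued exposure of human tumour lines to sample. Values are means ± SD of three wells, expressed as GI, TGI or LC.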

[2] = system: A-549; assay: SRB colorimetric cell growth inhibition assay, A-549; type: cell-based; details: Homo sapiens, A549, A-549; for GI50: GI=growth inhibition, read-out: GI50 A-549; for CC50: LC=cell killing (cytotoxic effect), read-out: LC50 A-549; for IC (TGI): TGI=total growth inhibition (cytostatic effect), read-out: TGI A-549
In short: as §1

[3] = biological target: T1, human topoisomerase I (Homo sapiens, UniProt P11387); assay: Topoisomerase I DNA relaxation assay (supercoiled plasmid DNA); type: biochemical; details: supercoiled plasmid DNA, each compound tested at 1 μM, agarose gel with ethidium bromide
T1 sequence (P11387 1-765): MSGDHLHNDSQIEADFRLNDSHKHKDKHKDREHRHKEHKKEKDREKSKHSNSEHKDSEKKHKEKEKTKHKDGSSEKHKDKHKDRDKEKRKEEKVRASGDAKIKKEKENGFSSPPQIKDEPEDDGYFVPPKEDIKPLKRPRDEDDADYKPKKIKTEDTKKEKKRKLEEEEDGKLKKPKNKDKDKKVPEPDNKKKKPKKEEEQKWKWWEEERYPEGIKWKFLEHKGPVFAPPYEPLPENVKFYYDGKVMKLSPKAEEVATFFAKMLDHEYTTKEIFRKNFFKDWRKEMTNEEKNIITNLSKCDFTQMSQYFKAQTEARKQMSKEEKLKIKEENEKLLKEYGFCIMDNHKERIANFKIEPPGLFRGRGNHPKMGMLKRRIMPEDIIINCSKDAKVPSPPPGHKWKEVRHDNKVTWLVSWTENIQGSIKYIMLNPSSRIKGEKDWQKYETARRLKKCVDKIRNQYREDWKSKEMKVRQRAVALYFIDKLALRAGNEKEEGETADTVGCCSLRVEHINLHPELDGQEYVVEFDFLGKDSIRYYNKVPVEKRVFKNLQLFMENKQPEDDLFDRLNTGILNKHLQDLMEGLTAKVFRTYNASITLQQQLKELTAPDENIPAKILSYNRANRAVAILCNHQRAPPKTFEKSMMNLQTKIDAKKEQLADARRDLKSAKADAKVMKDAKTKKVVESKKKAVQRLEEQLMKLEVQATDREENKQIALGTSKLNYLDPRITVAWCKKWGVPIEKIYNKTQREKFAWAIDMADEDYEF
In short: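 Test compounds (1 μM each) were present during topoisomerase I relaxation of supercoiled plasmid DNA. Relaxation was assessed on ethidium bromide-stained agarose gels.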

[4] = system: K-562; assay: SRB colorimetric cell growth inhibition assay, K-562; type: cell-based; details: Homo sapiens, K562, K-562; for GI50: GI=growth inhibition, read-out: GI50 K-562; for CC50: LC=cell killing (cytotoxic effect), read-out: LC50 K-562; for IC (TGI): TGI=total growth inhibition (cytostatic effect), read-out: TGI K-562
In short: as §1

[5] = system: SK-MEL-28; assay: SRB colorimetric cell growth inhibition assay, SK-MEL-28; type: cell-based; details: Homo sapiens, SK-MEL-28, MEL-28; for GI50: GI=growth inhibition, read-out: GI50 MEL-28; for CC50: LC=cell killing (cytotoxic effect), read-out: LC50 MEL-28; for IC (TGI): read-out: TGI MEL-28
In short: as §1

[6] = system: LoVo; assay: SRB colorimetric cell growth inhibition assay, LoVo; type: cell-based; details: Homo sapiens; for CC50: LC=cell killing (cytotoxic effect), read-out: LC50 LOVO; for GI50: GI=growth inhibition, read-out: GI50 LOVO; for IC (TGI): TGI=total growth inhibition (cytostatic effect), read-out: TGI LOVO
In short: as §1

[7] = system: HT-29; assay: SRB colorimetric cell growth inhibition assay, HT-29; type: cell-based; details: Homo sapiens; for CC50: LC=cell killing (cytotoxic effect), read-out: LC50 HT-29; for GI50: GI=growth inhibition, read-out: GI50 HT-29; for IC (TGI): TGI=total growth inhibition (cytostatic effect), read-out: TGI HT-29
In short: as §1

[8] = system: IGROV-ET; assay: SRB colorimetric cell growth inhibition assay, IGROV-ET (ET-743 resistant); type: cell-based; details: Homo sapiens, IGROV-ET; for GI50: GI=growth inhibition, read-out: GI50 IGROV-ET; for CC50: LC=cell killing (cytotoxic effect), read-out: LC50 IGROV-ET; for IC (TGI): read-out: TGI IGROV-ET
In short: as §1

[9] = system: DU-145; assay: SRB colorimetric cell growth inhibition assay, DU-145; type: cell-based; details: Homo sapiens; for CC50: LC=cell killing (cytotoxic effect), read-out: LC50 DU-145; for GI50: GI=growth inhibition, read-out: GI50 DU-145; for IC (TGI): read-out: TGI DU-145
In short: as §1

[10] = system: LNCaP; assay: SRB colorimetric cell growth inhibition assay, LNCaP; type: cell-based; details: Homo sapiens, LNCaP, LN-caP; for GI50: GI=growth inhibition, read-out: GI50 LN-caP; for CC50: LC=cell killing (cytotoxic effect), read-out: LC50 LN-caP; for IC (TGI): read-out: TGI LN-caP
In short: as §1

[11] = system: SK-BR-3; assay: SRB colorimetric cell growth inhibition assay, SK-BR-3; type: cell-based; details: Homo sapiens; for CC50: LC=cell killing (cytotoxic effect), read-out: LC50 SK-BR-3; for GI50: GI=growth inhibition, read-out: GI50 SK-BR-3; for IC (TGI): read-out: TGI SK-BR-3
In short: as §1

[12] = system: IGROV; assay: SRB colorimetric cell growth inhibition assay, IGROV; type: cell-based
In short: as §1

[13] = system: LoVo-Dox; assay: SRB colorimetric cell growth inhibition assay, LoVo-Dox (MDR); type: cell-based
In short: as §1

[14] = total growth inhibition (cytostatic effect)
[15] = Homo sapiens, IGROV; LC=cell killing (cytotoxic effect); read-out: LC50 IGROV
[16] = Homo sapiens, LOVO-DOX; GI=growth inhibition; read-out: GI50 LOVO-DOX
[17] = Homo sapiens, LOVO-DOX; LC=cell killing (cytotoxic effect); read-out: LC50 LOVO-DOX
[18] = TGI=total growth inhibition (cytostatic effect)
[19] = DU-145, DU-145, TGI=total growth inhibition (cytostatic effect)
[20] = SK-BR-3, SK-BR-3, TGI=total growth inhibition (cytostatic effect)
[21] = Homo sapiens, IGROV; GI=growth inhibition; read-out: GI50 IGROV
[22] = Homo sapiens, IGROV; TGI=total growth inhibition (cytostatic effect); read-out: TGI IGROV
[23] = Homo sapiens, LOVO-DOX; TGI=total growth inhibition (cytostatic effect); read-out: TGI LOVO-DOX

| Structure (SMILES) | CC50 ([1]; PANC-1, PANC-1) [nM] | IC (TGI) ([1]; PANC-1, PANC-1) [nM] | GI50 [2] [nM] | CC50 [2] [nM] | IC (TGI) [2] [nM] | stimulation of DNA cleavage by topoisomerase I / inhibition of topoisomerase I (nicked DNA band) in DNA relaxation assay [3] | GI50 [4] [nM] | CC50 [4] [nM] | IC (TGI) [4] [nM] | GI50 [5] [nM] | CC50 [5] [nM] | CC50 ([6]; LoVo) [nM] | CC50 ([7]; HT-29, HT-29) [nM] | GI50 [8] [nM] | CC50 [8] [nM] | CC50 ([9]; DU-145, DU-145) [nM] | GI50 [10] [nM] | CC50 [10] [nM] | CC50 ([11]; SK-BR-3, SK-BR-3) [nM] | CC50 [12, 15] [nM] | further results |
| --- | --- | --- | --- | --- | --- | --- | --- | --- | --- | --- | --- | --- | --- | --- | --- | --- | --- | --- | --- | --- | --- |
| COc1cc(-c2c3c4cc(OC)c(OC(=O)[C@@H](NC(=O)OC(C)(C)C)C(C)C)cc4oc(=O)c3n3ccc4cc(OC(=O)[C@@H](NC(=O)OC(C)(C)C)C(C)C)c(OC)cc4c23)ccc1OC(=O)[C@@H](NC(=O)OC(C)(C)C)C(C)C [Compound 38] | 9110 | 9110 | 1340 | 9110 | 4780 | No effect | 41.3 | 9110 | 1150 | 165 | 9110 | 9110 | 9110 | 1290 | 9110 | 9110 | 152 | 3900 | 9110 | 9110 | GI50 ([1]; PANC-1): 499 nM; IC (TGI) [5, 14]: 520 nM; GI50 ([6]; LOVO): 9110 nM; IC (TGI) ([6]; LOVO): 9110 nM; GI50 ([7]; HT-29): 32.4 nM; IC (TGI) ([7]; HT-29): 91.1 nM; IC (TGI) [8, 14]: 4510 nM; GI50 ([9]; DU-145): 51.2 nM; IC (TGI) ([9]; DU-145, total growth inhibition (cytostatic effect)): 9110 nM; IC (TGI) [10, 14]: 509 nM; GI50 ([11]; SK-BR-3): 448 nM; IC (TGI) ([11]; SK-BR-3, total growth inhibition (cytostatic effect)): 4080 nM; GI50 ([12]; Homo sapiens; IGROV; GI=growth inhibition; read-out: GI50 IGROV): 244 nM; IC (TGI) ([12]; Homo sapiens; IGROV; total growth inhibition (cytostatic effect); read-out: TGI IGROV): 1070 nM; GI50 [13, 16]: 9110 nM; CC50 [13, 17]: 9110 nM; IC (TGI) ([13]; Homo sapiens; LOVO-DOX; TGI=total growth inhibition (cytostatic effect); read-out: TGI LOVO-DOX): 9110 nM |
| COc1cc(-c2c3c4cc(OC)c(OC(=O)[C@@H](N)CC(C)C)cc4oc(=O)c3n3ccc4cc(OC(=O)[C@@H](N)CC(C)C)c(OC)cc4c23)ccc1OC(=O)[C@@H](N)CC(C)C [Compound 39] | 8470 | 8470 | 46.4 | 8470 | 855 | marked inhibition of topoisomerase I | 35.9 | 8470 | 1080 | 33.9 | 8470 | 8470 | 8470 | 55 | 8470 | 8470 | 27.9 | 8470 | 8470 | 8470 | GI50 ([1]; PANC-1, PANC-1): 164 nM; IC (TGI) [5, 18]: 295 nM; GI50 ([6]; LoVo): 321 nM; IC (TGI) ([6]; LoVo): 2530 nM; GI50 ([7]; HT-29, HT-29): 3040 nM; IC (TGI) ([7]; HT-29, HT-29): 8470 nM; IC (TGI) [8, 18]: 369 nM; GI50 ([9]; DU-145, DU-145): 18 nM; IC (TGI) [9, 19]: 142 nM; IC (TGI) [10, 18]: 252 nM; GI50 ([11]; SK-BR-3, SK-BR-3): 54.5 nM; IC (TGI) [11, 20]: 1460 nM; GI50 [12, 21]: 34.1 nM; IC (TGI) [12, 22]: 931 nM; GI50 [13, 16]: 323 nM; CC50 [13, 17]: 8470 nM; IC (TGI) [13, 23]: 1810 nM |
| COc1cc(-c2c3c4cc(OC)c(OC(=O)[C@H](C)N)cc4oc(=O)c3n3ccc4cc(OC(=O)[C@H](C)N)c(OC)cc4c23)ccc1OC(=O)[C@H](C)N [Compound 40] | 9480 | 3270 | 31.6 | 9480 | 270 | marked inhibition of topoisomerase I | 58.2 | 4610 | 986 | 41.2 | 9480 | 6410 | 9480 | 85.2 | 9480 | 9480 | 130 | 4380 | 9480 | 5040 | GI50 ([1]; PANC-1, PANC-1): 254 nM; IC (TGI) [5, 18]: 595 nM; GI50 ([6]; LoVo): 223 nM; IC (TGI) ([6]; LoVo): 884 nM; GI50 ([7]; HT-29, HT-29): 3570 nM; IC (TGI) ([7]; HT-29, HT-29): 9480 nM; IC (TGI) [8, 18]: 557 nM; GI50 ([9]; DU-145, DU-145): 16.2 nM; IC (TGI) [9, 19]: 94 nM; IC (TGI) [10, 18]: 447 nM; GI50 ([11]; SK-BR-3, SK-BR-3): 816 nM; IC (TGI) [11, 20]: 3250 nM; GI50 [12, 21]: 44.9 nM; IC (TGI) [12, 22]: 391 nM; GI50 [13, 16]: 470 nM; CC50 [13, 17]: 9480 nM; IC (TGI) [13, 23]: 3350 nM |
